According to patent US6492395B1, “Topical formulation of alkyl-, phenyl-pyridone” (Mepha AG, priority 2001, dated 2002):

Test: Stability test, 6 months storage under standard storage conditions
Assay type: physicochemical
Experimental: Stability testing was carried out as above.

effect on physical stability of emulsions and other colloidal systems: emulsion destabiliser
Compound: Cc1ccc(=O)n(-c2ccccc2)c1 [5-methyl-1-phenyl-2-(1H)-pyridone]
